In PMC11507932, “Comparative Analysis on Polyphenolic Composition of Different Olive Mill Wastewater and Related Extra Virgin Olive Oil Extracts and Evaluation of Nutraceutical Properties by Cell-Based Studies” (Foods, 2024):
Marks after values point to notes of the source that are not given here.

Columns and labels:
[1] = test system: co-culture of Caco-2 and HT29-MTX cell lines; test: Intestinal permeability assay, Caco-2/HT29-MTX co-culture, LC-MS quantification; assay type: in vitro ADME, human; conditions: for calculated concentration, basolateral side / calculated concentration, apical side: OMWW B1 sample, mean ± SD (n = 3); for calculated concentration, apical side: apical (100% reference); for Mean Permeation Rate (±SD) at 240 min: polyphenol within OMWW B1 sample (500 µg/mL), apical to basolateral
Protocol: The instrumental setup consisted of an Agilent (Santa Clara, CA, USA) 1290 UHPLC system, which included a binary pump, a column oven maintained at 40 °C, and a temperature-controlled autosampler. This system was connected to a Sciex (Concord, ON, Canada) QTRAP 6500+ mass spectrometer operating as a triple quadrupole, equipped with an IonDrive™ Turbo V source performing electrospray ionization (ESI). […] The instrument control and data acquisition were performed using Sciex Analyst® version 1.7 software and MultiquantTM software version 3.0.3. Data analysis was carried out using Microsoft 365® Excel software (Albuquerque, NM, USA) and GraphPad (San Diego, CA, USA) Prism version 9.0.2. The mass spectrometry selected reaction monitoring (SRM) method was operated in negative ion mode. For each compound, declustering potential (DP), collision energy (CE), and collision exit potential (CxP) were optimized, and three transitions were considered for analysis. One transition was used for quantification (Q), while the other two were used as qualifiers (q). The transition list and additional operational parameters are already reported. A stock solution of each standard compound, including the internal standard, was prepared in MeOH at a concentration of 100 μg/mL and stored at −20 °C. Calibration curves were freshly prepared in pure LC-MS water. […] [34]. The experiments were performed 21 days after seeding the cells in 12 well plates. During this period, the transepithelial electrical resistance (TEER) was monitored to evaluate the cell monolayer integrity. On the last day, cell monolayers were pre-equilibrated with fresh HBSS (pH 7.4) at 37 °C for 30 min. […] At the same time, the TEER was evaluated, using an EVOM Epithelial Volthometer Instrument equipped with a chopstick electrode (World Precision Instruments, Sarasota, FL, USA). After each sampling time, the basolateral side was replaced with the same HBSS volume. Samples were conserved at −20 °C for subsequent LC/ESI-MS analysis, according to Section 2.5.

[2] = Hypochlorous acid scavenging assay (DHR oxidation); assay type: biochemical; conditions: mean ± SD (n = 3)
Protocol: The uptake capacity of hypochlorous acid (HOCl^−) was determined by monitoring the effect of OMWW extracts in the HOCl^− induced oxidation of dihydrorhodamine (DHR) to rhodamine, as reported by Gomes et al.. The fluorescence was read at 37 °C for 5 min, at wavelengths of 485 ± 20 nm and 528 ± 20 nm. The results were expressed as the inhibition, in IC50, of HOCl^− induced DHR oxidation.

[3] = Superoxide radical scavenging assay (NBT reduction); assay type: biochemical; conditions: mean ± SD (n = 3)
Protocol: The superoxide radical (O2^−) scavenging capacity was spectrophotometrically evaluated, in accordance with Gomes et al.. Absorbance was read at 560 nm for 6 min at 37 °C in a Synergy HT Microplate Reader. The results were expressed as IC50, of the reduction in NBT to a purple-colored diformazan by the reaction with O2.

[4] = DPPH free radical scavenging assay; assay type: biochemical; conditions: mean ± standard error (n = 3); 45 min, rt
Protocol: The antiradical activity of OMWW and EVOO samples was assessed by the DPPH free radical scavenging, as reported by Cuffaro et al.. Briefly, 100 μL of DPPH MeOH solution (40.0 μg/mL) was added to 100 μL of the sample solution in MeOH (1 mg/mL to 0.01 mg/mL), and the resulting solution was incubated for 45 min at rt and in the dark. The absorbance was read at 517 nm in a Molecular Devices […] (200-1000 nm) UV/Vis spectrophotometer. Trolox® was the positive control and was treated under the same conditions as the samples. The percent of antioxidant activity (%AA) was calculated according to the following equation:%AA = ([…] = DPPH solution absorbance Abssample = DPPH solution containing the test compound absorbance […] All experiments were performed in triplicate.

[5] = ABTS radical cation scavenging assay; assay type: biochemical; conditions: mean ± standard error (n = 3); 5 min, rt
Protocol: The ABTS free radical scavenging activity of samples was evaluated by radical cation colorimetric assay in accordance with Cuffaro et al.. Briefly, the ABTS solution (7 mM of aqueous solution of ABTS with 2.45 mM potassium persulfate in a 1:1 ratio) was incubated for 12 h in the dark at rt. Then, the solution was diluted with EtOH to obtain an absorbance of 0.7 at 750 nm. A total of 10 μL of sample solution (1 mg/mL to 0.01 mg/mL) in EtOH was mixed with 180 μL of ABTS solution and the solution was incubated for 5 min at rt. The final absorbance was read at 734 nm in a Molecular Devices […] (200-1000 nm) UV/Vis spectrophotometer. The % scavenging ability was calculated as follows:% scavenging ability = ([…] = ABTS solution absorbance Abssample = ABTS solution containing the test compound absorbance. […] Trolox® was employed as positive control and was treated under the same conditions as the samples. All experiments were performed in triplicate.

[6] = test system: co-culture of Caco-2 and HT29-MTX cell lines; design: method as in PMID 37446813; conditions: tyrosol alone, same model; cited from earlier work

| Structure (SMILES) | calculated concentration, basolateral side ([1]; 30 min) | calculated concentration, basolateral side ([1]; 60 min) | calculated concentration, basolateral side ([1]; 120 min) | calculated concentration, basolateral side ([1]; 180 min) | calculated concentration, basolateral side ([1]; 240 min) | calculated concentration, apical side [1] | Mean Permeation Rate (±SD) at 240 min ([1]; 240 min) | Mean Permeation Rate (±SD) at 240 min ([1]; 240 min, listed as caffeic acid) | HOCl^− scavenging IC50 [2] | O2^− scavenging IC50 [3] | Mean Permeation Rate (±SD) at 240 min ([1]; 240 min, listed as hydroxytyrosol) | DPPH IC50 [4] | ABTS IC50 [5] | permeation (release) at 240 min [6] |
| --- | --- | --- | --- | --- | --- | --- | --- | --- | --- | --- | --- | --- | --- | --- |
| O=C(O)/C=C/c1ccc(O)c(O)c1 [Caffeic acid] | 0,31 ± 0,10 ng/mL | 0,40 ± 0,25 ng/mL | 1,29 ± 0,31 ng/mL | 2,00 ± 0,01 ng/mL | 1,89 ± 0,42 ng/mL | 7,31 ± 0,74 ng/mL | 26 ± 3% | 26% |  |  |  |  |  |  |
| O.Oc1cc(O)c2c(c1)O[C@H](c1ccc(O)c(O)c1)[C@@H](O)C2 [Catechin] |  |  |  |  |  |  |  |  | 0.20 ± 0.01 ^b μg/mL | 18.01 ± 0.34 ^c,d μg/mL |  |  |  |  |
| O=C(O)c1cc(O)c(O)c(O)c1 [Gallic acid] |  |  |  |  |  |  |  |  | 2.60 ± 0.05 ^b μg/mL | 6.34 ± 0.21 ^d μg/mL |  |  |  |  |
| OCCc1ccc(O)c(O)c1 [Hydroxytyrosol] | 7,42 ± 5,35 ng/mL | 9,12 ± 5,78 ng/mL | 15,75 ± 5,02 ng/mL | 19,40 ± 2,55 ng/mL | 15,20 ± 1,98 ng/mL | 45,30 ± 0,85 ng/mL | 34 ± 5% |  |  |  | 34% |  |  |  |
| Cc1c(C)c2c(c(C)c1O)CCC(C)(C(=O)O)O2 (stereo not drawn) [Trolox] |  |  |  |  |  |  |  |  |  |  |  | 0.007 ± 0.001 ^h mg/mL | 0.003 ± 0.0004 ^i mg/mL |  |
| OCCc1ccc(O)cc1 [Tyrosol] | 155,50 ± 6,36 ng/mL | 224,50 ± 21,92 ng/mL | 259,50 ± 47,38 ng/mL | 256,50 ± 13,44 ng/mL | 314,00 ± 33,94 ng/mL | 587,50 ± 234,05 ng/mL | 59 ± 29% |  |  |  |  |  |  | 78% |
